Source: ChEMBL document CHEMBL4706692, “CC-90009: A Cereblon E3 Ligase Modulating Drug That Promotes Selective Degradation of GSPT1 for the Treatment of Acute Myeloid Leukemia” (J Med Chem, 2021)

Columns and labels:
THLE-2 = test: Cytotoxicity against human THLE-2 cells assessed as cell viability incubated for 72 hrs by cell titer glo assay; format: cell-based; details: THLE-2, 72 h
[1] = Selectivity index, ratio of IC50 for cytotoxicity against human THLE-2 cells to IC50 for antiproliferative activity against human KG-1 cells
KG-1 = test: Antiproliferative activity against human KG-1 cells assessed as reduction in cell viability incubated for 72 hrs by cell titer glo assay; format: functional, cell-based; details: KG-1, 72 h
KG-1a = test: Antiproliferative activity against human KG-1a cells assessed as reduction in cell viability incubated for 72 hrs by cell titer glo assay; format: functional, cell-based
MOLM-13 = test: Antiproliferative activity against human MOLM-13 cells assessed as reduction in cell viability incubated for 72 hrs by cell titer glo assay; format: functional, cell-based; details: MOLM-13, 72 h
OCI-AML-3 = test: Antiproliferative activity against human OCI-AML3 cells assessed as reduction in cell viability incubated for 72 hrs by cell titer glo assay; format: functional, cell-based; details: OCI-AML-3, 72 h
HL-60 = test: Antiproliferative activity against human HL-60 cells assessed as reduction in cell viability incubated for 72 hrs by cell titer glo assay; format: functional, cell-based; details: HL-60, 72 h
U-937 = test: Antiproliferative activity against human U937 cells assessed as reduction in cell viability incubated for 72 hrs by cell titer glo assay; format: functional, cell-based; details: U-937, 72 h
OCI-AML2 = test: Antiproliferative activity against human OCI-AML2 cells assessed as reduction in cell viability incubated for 72 hrs by cell titer glo assay; format: functional, cell-based; details: OCI-AML2, 72 h
NB-4 = test: Antiproliferative activity against human NB4 cells assessed as reduction in cell viability incubated for 72 hrs by cell titer glo assay; format: functional, cell-based; details: NB-4, 72 h
Kasumi 1 = test: Antiproliferative activity against human Kasumi 1 cells assessed as reduction in cell viability incubated for 72 hrs by cell titer glo assay; format: functional, cell-based; details: Kasumi 1, 72 h
MV4-11 = test: Antiproliferative activity against human MV4-11 cells assessed as reduction in cell viability incubated for 72 hrs by cell titer glo assay; format: functional, cell-based; details: MV4-11, 72 h

| SMILES | IC50 (THLE-2) | Ratio IC50 [1] | IC50 (KG-1) | IC50 (KG-1a) | IC50 (MOLM-13) | IC50 (OCI-AML-3) | IC50 (HL-60) | IC50 (U-937) | IC50 (OCI-AML2) | IC50 (NB-4) | IC50 (Kasumi 1) | IC50 (MV4-11) |
| --- | --- | --- | --- | --- | --- | --- | --- | --- | --- | --- | --- | --- |
| O=C(Cc1ccccc1)NCc1ccc2c(c1)CN(C1CCC(=O)NC1=O)C2=O (centres undefined) | 231 nM | 6 | 37 nM |  |  |  |  |  |  |  |  |  |
| Cc1ccc(NC(=O)NCc2ccc3c(c2)CN(C2CCC(=O)NC2=O)C3=O)cc1Cl (centres undefined) | 11 nM |  | 7 nM | 8 nM | 8 nM | 73 nM | 3 nM | 11 nM | 21 nM | 2 nM | 10 nM | 5 nM |
